# Literature values as cited in patent US7071337B2, “Benzoimidazole derivatives useful as antiproliferative agents” (Pfizer Inc, priority 2002, dated 2006).
# Key:
# [1] = tested on: transplanted human mammary carcinoma that expresses epidermal growth factor receptor tyrosine kinase (EGFR); conditions: athymic nude mice
# [2] = tested on: another carcinoma that does not express the EGF receptor; conditions: athymic nude mice
compound,measurement,setting,value
O=CN/C=C/c1cc(O)ccc1O [erbstatin],growth of transplanted human mammary carcinoma expressing EGFR,[1],selectively attenuates the growth
same,growth of carcinoma not expressing the EGF receptor,[2],without effect on the growth
